US9766247B2, “Rapid method to analyze ubiquitin-proteasome activity and to screen for ubiquitin-proteasome inhibitor” (KOREA INSTITUTE OF SCIENCE AND TECHNOLOGY, priority 2014, dated 2017)
Residues, ends and D or L forms follow the SMILES beside them. *: point of attachment. Cbz = O=C(OCc1ccccc1)*

Test system: ubiquitin-proteasome
Assay: Quantification of GFP-RPN1 fusion protein accumulated by proteasome inhibitor (dual LIF CE system)
Format: cell-based, human
Details: HEK 293T cells transfected with EGFP-RPN1 and DsRed plasmid vectors; about 0 to about 20 μM inhibitor, two hours; GFP-RPN1 peak height by CE-dual LIF; FIGS. 5a to 5c
Procedure: To monitor a ubiquitin-proteasome-dependent protein RPN1 (ribophorin I), a plasmid vector enabling to express a fusion protein including a green fluorescent protein (GFP) and RPN1 was prepared. Specifically, to induce rapid lysis of a human RPN1 protein, a wild type RPN1 polynucleotide (SEQ ID NO: 2) encoding a wild type human RPN1 protein (SEQ ID NO: 1) was used to prepare a mutant RPN-I^N299T polynucleotide (SEQ ID NO: 4) encoding a mutant RPN-I^N299T protein (SEQ ID NO: 3). The mutant RPN-I^N299T polynucleotide (SEQ ID NO: 4) was cloned into a pEGFP-C1 plasmid vector (Clontech Laboratories Inc.) to prepare a pEGFP-RPN1^N299T plasmid which enables expression of a fusion protein including a GFP protein and the RPN1^N299T protein.
On the other hand, a plasmid vector expressing a red fluorescent protein (RFP) as a ubiquitin-proteasome-independent protein which is not lysed by a ubiquitin-proteasome was prepared. Specifically, a pDs-Red2-Express-N1 plasmid vector (Clontech Laboratories Inc.) which enables expression of a Discosoma species RFP (DsRed) was prepared.
As host cells, human embryonic kidney (HEK) 293T cells were cultured in a DMEM (Dulbecco's Modified Eagle's Medium) (Gibco/BRL) including 10% (v/v) fetal bovine serum (FBS) and 1% (v/v) penicillin-streptomycin (Gibco/BRL) at a temperature of 37° C. under the atmosphere of 5% CO2. During the culturing, the medium was replaced with new medium every second day. […]
Subsequently, the supernatant which was the cell lysate was obtained as described in Example 1.2. As described in Example 1.3, a capillary electrophoresis was performed with the obtained supernatant under the electrophoresis conditions of 100 mM Tris-CHES and 10 mM SDS (pH 9.0) by using a dual LIF CE system including an uncoated capillary having an inner diameter of 75 μm and a length of 50 cm to quantify the peak height. […]

Row | Structure (SMILES) | amount of the accumulated proteins (relative intensity of the peaks)
1 | CC(C)C[C@@H](C=O)NC(=O)[C@H](CC(C)C)NC(=O)[C@H](CC(C)C)NC(=O)OCc1ccccc1 [MG132] (Cbz-Leu-Leu-Leu-aldehyde) | varied according to the increase of the concentrations
2 | CC(C)C[C@H](NC(=O)[C@H](Cc1ccccc1)NC(=O)c1cnccn1)B(O)O [bortezomib] | varied according to the increase of the concentrations
3 | CC(C)C[C@H](NC(=O)[C@H](CCc1ccccc1)NC(=O)CN1CCOCC1)C(=O)N[C@@H](Cc1ccccc1)C(=O)N[C@@H](CC(C)C)C(=O)[C@@]1(C)CO1 [carfilzomib] | varied according to the increase of the concentrations
